Test results taken from the supplement of paper PMC11208160.

Assay: recombinant UMI read abundance after kanamycin selection (control-corrected) (log10(CPM+1)); higher = more efficient recombination; extreme values may be limits of the assay; sequences stand for … in AGTGCAGAGAAAATCGGCCAGTTTTCTCTGCCTGCAGTCCGCATGCCGTGGGACCCCTTGGGTTCTAACCTGTTGCCTAGATTTATGCAGCGGACTGCCTTTCTCCCAAAGTGATAAACCGG…AGGTTGGTTTCACT; site = the 11-nt donor
How it was run: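 Two replicates each of selected and unselected plating were used in this pooled Escherichia coli screen of donor and donor-binding-loop pairs for the IS621 bridge recombinase. Selection was with IPTG (0.07 mM) and kanamycin. Counts of recombinant UMIs, amplified across the donor–target junction, were converted to CPM, averaged, scaled by control-derived factors and reported as log10(CPM+1).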
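Note: IS621 bridge recombinase in Escherichia coli cells against a fixed T5 target plasmid.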

Point of comparison: “CTTAATACATGGACCGGTTTTCCCGGTAATCCGTATTTGGC (site CCTAATACTGC)”, “recombinant UMI read abundance (log10)” value 0. Against it:
- CACTCCGCATGGACCGGTTTTCCCGGTAATCCGTATTTGCC (site CACTCCCCTGG) — the same, 0
- AAAGTGTCATGGACCGGTTTTCCCGGTAATCCGTATTTGAC (site AACGTGTCTGT) — the same, 0
- ACGCGTCCATGGACCGGTTTTCCCGGTAATCCGTATTTGAC (site ACGCGTCCTGT) — higher, 1.55
- CGTTAGACATGGACCGGTTTTCCCGGTAATCCGTATTTGTG (site CGTTAGACTCT) — within 0.2 log units, 0.0332
- AGCCTCGCATGGACCGGTTTTCCCGGTAATCCGTATTTGTT (site AGCCTCGCTAA) — within 0.2 log units, 0.0635
- GATTATCCATGGACCGGTTTTCCCGGTAATCCGTATTTGGT (site GATTATCCTAG) — the same, 0
- GTGAATGCATGGACCGGTTTTCCCGGTAATCCGTATTTGGT (site GTGCATGCTAC) — higher, 0.318
- TAGTCTTCATGGACCGGTTTTCCCGGTAATCCGTATTTGGT (site TAGGCTTCTAC) — within 0.2 log units, 0.012
- GCTGCTGCATGGACCGGTTTTCCCGGTAATCCGTATTTGCC (site GCTTCTGCTGG) — the same, 0
- TAGGAAACATGGACCGGTTTTCCCGGTAATCCGTATTTGCG (site TAGGAAACTCG) — higher, 2.39
- ACTCGTGCATGGACCGGTTTTCCCGGTAATCCGTATTTGGT (site ACTGGTGCTAC) — higher, 0.222
- GTCGCTCCATGGACCGGTTTTCCCGGTAATCCGTATTTGGG (site GTCGCTCCTCC) — within 0.2 log units, 0.0316
- TCATCCTCATGGACCGGTTTTCCCGGTAATCCGTATTTGCA (site TCATGCTCTTG) — within 0.2 log units, 0.00381
- TATTTGACATGGACCGGTTTTCCCGGTAATCCGTATTTGCT (site TAATTGACTAG) — higher, 1.9
- CCCCACACATGGACCGGTTTTCCCGGTAATCCGTATTTGTA (site CCTCACACTTA) — within 0.2 log units, 0.0102
- CATTGGACATGGACCGGTTTTCCCGGTAATCCGTATTTGAC (site TATTGGACTGT) — the same, 0
- AACCGTCCATGGACCGGTTTTCCCGGTAATCCGTATTTGAT (site AACGGTCCTAT) — within 0.2 log units, 0.00654
- CCGTTACCATGGACCGGTTTTCCCGGTAATCCGTATTTGTG (site CCGTTAACTCA) — within 0.2 log units, 0.00404
- GCTACTGCATGGACCGGTTTTCCCGGTAATCCGTATTTGCC (site GCTACTGCTGC) — the same, 0
- GTTTTTCCATGGACCGGTTTTCCCGGTAATCCGTATTTGGT (site GTTCTTCCTAC) — within 0.2 log units, 0.00946
- ACATATACATGGACCGGTTTTCCCGGTAATCCGTATTTGTG (site ACATCTACTCA) — within 0.2 log units, 0.0121
- GCATGGCCATGGACCGGTTTTCCCGGTAATCCGTATTTGCA (site GGATGGCCTTG) — within 0.2 log units, 0.0185
- GTTAGAACATGGACCGGTTTTCCCGGTAATCCGTATTTGGC (site GTTAGGACTGC) — within 0.2 log units, 0.0154
- GCACCAACATGGACCGGTTTTCCCGGTAATCCGTATTTGCC (site GCACCAACTGG) — higher, 0.762
- CGGAATCCATGGACCGGTTTTCCCGGTAATCCGTATTTGTT (site CGGAATACTAA) — the same, 0
- CGATCCACATGGACCGGTTTTCCCGGTAATCCGTATTTGTT (site CGATCAACTAA) — within 0.2 log units, 0.00541
- CAATGCTCATGGACCGGTTTTCCCGGTAATCCGTATTTGAA (site CAACGCTCTTT) — higher, 1.58
- TAGGGTGCATGGACCGGTTTTCCCGGTAATCCGTATTTGCC (site TAGGGTGCTGG) — higher, 2.58
- CTTGTATCATGGACCGGTTTTCCCGGTAATCCGTATTTGAT (site CTAGTATCTGT) — the same, 0
- CAAGCGCCATGGACCGGTTTTCCCGGTAATCCGTATTTGTG (site CGAGCGCCTCA) — within 0.2 log units, 0.0092
- CATTCGCCATGGACCGGTTTTCCCGGTAATCCGTATTTGAA (site CATTCGCCTTT) — within 0.2 log units, 0.0116
- TAGATTACATGGACCGGTTTTCCCGGTAATCCGTATTTGCA (site TAGATTACTTG) — higher, 1.52
- GACAAGCCATGGACCGGTTTTCCCGGTAATCCGTATTTGGT (site GACAAACCTAC) — the same, 0
- GTGAAGGCATGGACCGGTTTTCCCGGTAATCCGTATTTGTG (site GTGGAGGCTCA) — higher, 1.02
- CAAGTGCCATGGACCGGTTTTCCCGGTAATCCGTATTTGTG (site CAAGAGCCTCA) — higher, 0.354
- CGCGAGTCATGGACCGGTTTTCCCGGTAATCCGTATTTGCC (site CGAGAGTCTGG) — the same, 0
- GAATGGCCATGGACCGGTTTTCCCGGTAATCCGTATTTGCA (site GAATGGCCTTC) — within 0.2 log units, 0.0145
- GAATGACCATGGACCGGTTTTCCCGGTAATCCGTATTTGCA (site GAATGGCCTTG) — higher, 1.02
- CGGATACCATGGACCGGTTTTCCCGGTAATCCGTATTTGTT (site CGGATACCTAA) — the same, 0
- CTTGGACCATGGACCGGTTTTCCCGGTAATCCGTATTTGTT (site CTTGGACCTAA) — within 0.2 log units, 0.00553
- GGTGCAACATGGACCGGTTTTCCCGGTAATCCGTATTTGTA (site GGTCCAACTTA) — within 0.2 log units, 0.00521
- GACAAACCATGGACCGGTTTTCCCGGTAATCCGTATTTGAT (site GACAAACCTAA) — the same, 0
- CGGTCGACATGGACCGGTTTTCCCGGTAATCCGTATTTGGG (site CGGTCGACTCC) — within 0.2 log units, 0.018
- CGACGTACATGGACCGGTTTTCCCGGTAATCCGTATTTGCT (site CGTCGTACTAG) — higher, 0.764
- TTGTGGACATGGACCGGTTTTCCCGGTAATCCGTATTTGTA (site TTGTGGACTTA) — higher, 1.6
- ATCCCAGCATGGACCGGTTTTCCCGGTAATCCGTATTTGAG (site ATCCCAGCTCT) — higher, 0.952
- GCTGCTGCATGGACCGGTTTTCCCGGTAATCCGTATTTGCC (site GCTACTGCTGG) — higher, 0.315
- CCGAAGACATGGACCGGTTTTCCCGGTAATCCGTATTTGGC (site CCGAAGACTGC) — the same, 0
- TAGCTTCCATGGACCGGTTTTCCCGGTAATCCGTATTTGGG (site TAGCTTCCTCC) — within 0.2 log units, 0.0588
- CAAGGCACATGGACCGGTTTTCCCGGTAATCCGTATTTGGG (site CAAGGCACTCC) — within 0.2 log units, 0.0216
- CGCCGTACATGGACCGGTTTTCCCGGTAATCCGTATTTGCT (site CACCGTACTAG) — higher, 0.33
- TCCTATTCATGGACCGGTTTTCCCGGTAATCCGTATTTGCC (site TCCTATTCTGG) — the same, 0
- AGTGTAACATGGACCGGTTTTCCCGGTAATCCGTATTTGCT (site AATGTAACTAG) — higher, 1.36
- CGATCATCATGGACCGGTTTTCCCGGTAATCCGTATTTGCT (site CGATACTCTAG) — the same, 0
- AACCGTCCATGGACCGGTTTTCCCGGTAATCCGTATTTGAT (site AAACGTCCTAT) — within 0.2 log units, 0.00674
- CTCAACACATGGACCGGTTTTCCCGGTAATCCGTATTTGCT (site CTCGACACTAG) — higher, 0.368
- CGTATGGCATGGACCGGTTTTCCCGGTAATCCGTATTTGCT (site CGTGTGGCTAG) — within 0.2 log units, 0.0109
- GTCCCCACATGGACCGGTTTTCCCGGTAATCCGTATTTGCC (site GTCCCCACTGG) — higher, 2.05
- CGGGAACCATGGACCGGTTTTCCCGGTAATCCGTATTTGAC (site CGGGAACCTCT) — the same, 0
- AAAGCGCCATGGACCGGTTTTCCCGGTAATCCGTATTTGTG (site GAAGCGCCTCA) — within 0.2 log units, 0.0199
- GCCGGTCCATGGACCGGTTTTCCCGGTAATCCGTATTTGCA (site ACCGGTCCTTG) — the same, 0
- GTTTAAACATGGACCGGTTTTCCCGGTAATCCGTATTTGGA (site GTTTAAACTTC) — higher, 0.655
- GAAGTTTCATGGACCGGTTTTCCCGGTAATCCGTATTTGTT (site GAAGTTTCTAA) — higher, 1.76
- AAGTCCACATGGACCGGTTTTCCCGGTAATCCGTATTTGCC (site AAGTCCACTGG) — higher, 1.61
- ACTGGTGCATGGACCGGTTTTCCCGGTAATCCGTATTTGGT (site ACTAGTGCTAC) — higher, 1
- CCCCACACATGGACCGGTTTTCCCGGTAATCCGTATTTGTA (site CCCCACACTTT) — within 0.2 log units, 0.00983
- GTTATTCCATGGACCGGTTTTCCCGGTAATCCGTATTTGGT (site GTTTTTCCTAC) — the same, 0
- CCGGAAACATGGACCGGTTTTCCCGGTAATCCGTATTTGCA (site CCGGAAACTTG) — within 0.2 log units, 0.135
- ATTGAGACATGGACCGGTTTTCCCGGTAATCCGTATTTGCT (site ATTGAGACTAG) — higher, 2.42
- CATCTGTCATGGACCGGTTTTCCCGGTAATCCGTATTTGGG (site CATCTGTCTCC) — higher, 0.559
- AATTATGCATGGACCGGTTTTCCCGGTAATCCGTATTTGGA (site ACTTATGCTTC) — higher, 0.937
- ACATCTACATGGACCGGTTTTCCCGGTAATCCGTATTTGTG (site ACATCTCCTCA) — within 0.2 log units, 0.0291
- AGTTGATCATGGACCGGTTTTCCCGGTAATCCGTATTTGAC (site AGTTGATCTGT) — higher, 1.28
- GTATGCCCATGGACCGGTTTTCCCGGTAATCCGTATTTGTA (site GTATGCCCTTA) — within 0.2 log units, 0.172
